Data from patent US5639793A, “Mammalian DNA topoisomerase II inhibitor and method” (The University of North Carolina at Chapel Hill, priority 1995, dated 1997).
“Also recorded” adds a separate entry of the source. Where two headings read alike, the source gives them in different places.

Legend:
[1] = system: human osteogenic sarcoma (HOS) cells; assay: Protein-linked DNA breaks in HOS cells (K-SDS precipitation); type: cell-based; conditions: for Induction of protein-linked DNA breaks: 30 minutes; for Induction of protein-linked DNA breaks in HOS cells: 20 micromolar, FIG. 9B; for Reversal of protein-linked DNA breaks after drug removal: an hour after removal
Method: Quantitation of protein-linked DNA breaks was performed according to a published procedure (Rowe). DNA in growing cells was labeled by adding methyl-^3 H-thymidine. […] Cells were lysed and protein-linked DNA complexes were precipitated by the K-SDS precipitiation method (Rowe).
(§1) A modified K-SDS precipitation assay was used to quantitate in vivo formation of protein-linked DNA breaks (Rowe). HOS cells were grown in Eagle's medium. The DNA in logarithmically growing cells (about 2×10^5 cells) was labelled by adding tritiated methyl-thymidine (specific activity: 40 Ci/mmol) into the medium to a final concentration of 0.5 microCurie per ml. After overnight incubation, cells were washed and incubated for another 2 hours at 37° C. The cells were then treated with various concentrations of drugs for 30 minutes. The cells were lysed with 1 ml prewarmed lysis solution containing 1.25% SDS, 5 mM EDTA (pH 8) salmon sperm DNA (0.4 mg/ml).
(§2) The lysate was transferred to a 1.5 ml Eppendorf tube and after syringing 8 times through a 22 G 11/2 gauge needle, 250 microliter of 325 mM KCl were added. The sample was cooled on ice for 10 minutes and centrifuged at 4° C. The pellet was resuspended in 10 mM Tris-HCl (pH 8)-100 mM KCl-1 mM EDTA and salmon sperm DNA (0.1 mg/ml) and placed at 65° C. for 10 minutes with occasional mixing. The suspension was cooled on ice for 10 minutes and recentrifuged. The pellet was washed again before resuspending in water (65° C.). The suspension was combined with 4 ml scintillation fluid and the radioactivity was determined.
(§3) Protein-linked DNA breaks assays were performed as described for Example 4 using HOS and HOS colR cells. Cells were treated with 20 micromolar […], TFC and TMBC.

[2] = system: mammalian DNA topoisomerase II; assay: P4 DNA unknotting assay, topoisomerase II inhibition in vitro; type: biochemical, HeLa (human); conditions: for Topoisomerase II activity on decreasing drug concentration (P4 DNA unknotting): 2-fold serial dilutions; for Potency relative to VP-16 (topoisomerase II inhibition): more potent than VP-16
Method: DNA topoisomerase II was purified as described (Kashiwada). Briefly, a 150 mM NaCl extract from Triton X-100-treated HeLa cell nuclei was obtained. Salt was dialyzed and the partially purified enzyme was loaded on a heparin-Sepahrose CL-6B column and batch eluted with a buffer containing increasing salt concentrations.
Enzyme activity was measured using the P4 DNA unknotting assay (Liu, 1981). P4 DNA isolated from bacteriophage P4 consists of monomeric DNA circles with their cohesive ends hydrogen-bonded and contains multiple topological knots. Such highly knotted P4 DNA can be converted to its simple circular form by mammalian DNA topoisomerase II, and can be used as a sensitive assay to detect topoisomerase II activity.
P4 DNA unknotting reactions by topoisomerase II were performed in the absence or presence of potential topoisomerase II inhibitors. […] Products from the […] reactions were run out on an agarose gel to determine the extent of P4 DNA unknotting and stained with ethidium bromide.
Topoisomerase II was purified from calf thymus by a known method (Kashiwada). P4 DNA was prepared as described (Liu, 1983). Agarose gel assays for P4 DNA unknotting were performed as follows. Reactions (20 microliters) containing 50 mM Tris-HCl (pH 7.5), 100 mM KCl, 10 mM magnesium chloride, 1 mM ATP, 0.5 mM dithiothreitol, 0.5 mM EDTA, bovine serum albumin (30 microgram/ml), 100 ng P4 DNA, one unit of HeLa DNA topoisomerase II, and varying concentrations of topoisomerase II inhibitors were incubated at 37° C. After 30 minutes, reactions were terminated by addition of a solution containing 10% SDS. The samples were electrophoresed through a 1% agarose gel in 90 mM Trisborate (pH 8.3)-2 mM EDTA buffer (Rowe).

HIV replication = conditions: background (Baum); cited from earlier work
[3] = background; cited from earlier work
[4] = system: BHK-Ve cells (BHK-B cells treated with vincristine in the presence of verapamil); assay: BHK-Ve cell growth inhibition; type: cell-based, hamster
Method: (§4) Cell growth inhibition assays were performed according to published procedures (Crumpton).
Verapamil inhibits drug binding to the p170 glycoprotein drug efflux pump.
(§5) The HOS cell growth inhibition assays were done according to a published procedure (Crumpton). All cells were grown in Eagle's minimium essential medium supplemented with 10% fetal bovine serum. Flasks were seeded at a density of 1×10^3 cell/cm^2 for monolayer cultures or 2×10^4 /ml for suspension cultures. Suspension cultures were used immediately for drug addition after dilution to a suitable starting density, and, about 24 hours after seeding, the compounds to be tested were added to the monolayer cultures. […] Control flasks also contained 0.1% DMSO.
(§6) Colonies of about 50 or more cells were counted and the plating efficiency was calculated as the per cent cells that were able to form colonies (Goz).

HOS cells = assay: Plating efficiency / cytotoxicity in HOS cells; conditions: one-hour treatment, Table 1
Method: Plating efficiencies are indicative of a compound's cytotoxicity (Goz).
as §6

[5] = system: human osteogenic sarcoma (HOS) cells; assay: HOS cell growth inhibition (antiproliferative activity); type: cell-based
Method: (§7) Additionally, baby hamster kidney (BHK) cell growth inhibition by these derivatives was investigated.
as §4, §5, §6

HOS colR cells = assay: Protein-linked DNA breaks in HOS colR cells; type: cell-based, human; conditions: 20 micromolar, FIG. 9B
Method: The amount of protein-linked DNA breaks caused by VP-16, TFC and TMBC were compared in HOS and HOS colR cells to determine whether […] glycoprotein expression would affect these drugs' ability to induce protein-linked DNA breaks and inhibit topoisomerase II activity.
as §1, §2, §3

[6] = system: BHK-B cells (vincristine-selected, expressing p170 glycoprotein); conditions: for BHK-B growth inhibition compared with BHK, in words: BHK-B versus BHK; for Export by the drug efflux pump: p170 glycoprotein, conclusion from BHK-B data; for EC50: read-out: BHK-B-EC50
Method: as §4
BHK-B cells are baby hamster kidney cells that have been selected with 0.05 microgram/ml vincristine and that express p170 glycoprotein. Sensitivity of BHK-B cells to TFC, TMBC and vincristine was investigated.
as §5, §6

[7] = system: HOS cells resistant to colchicine (HOS colR), expressing p170 glycoprotein; assay: HOS colR cell growth inhibition; type: cell-based, human; conditions: for EC50: HOS colR cells; for EC50 for HOS colR cells compared with HOS cells: HOS colR versus HOS not expressing p170
Method: as §4, §5, §6

[8] = system: baby hamster kidney (BHK) cells; assay: BHK cell growth inhibition; type: cell-based
Method: as §7, §4, §5, §6

[9] = system: mammalian DNA topoisomerase II; conditions: D'Arpa; cited from earlier work
[10] = 10-50 micromolar TFC, increasing concentrations TMBC
[11] = read-out: EC50, HOS cell replication
[12] = Table 2, read-out: HOS ColR EC50

COc1cc2c(c(OC)c1OC)-c1ccc(OC)c(=O)cc1[C@@H](NC(C)=O)CC2 [Colchicine, colchicine, reference compound]
Induction of protein-linked DNA breaks ([1]; colchicine 50 micromolar): did not induce protein-linked DNA breaks | Inhibition of topoisomerase II activity ([2]; concentrations as high as 200 micromolar): does not appear to inhibit topoisomerase II activity | Inhibition of HIV replication (HIV replication): inhibitor of HIV replication | Toxicity at therapeutic doses [3]: usually at toxic or nearly toxic doses

O=C(N[C@H]1CCc2cc(O)c(O)c(O)c2-c2ccc(O)c(=O)cc21)C(F)(F)F [TFC, N-trifluoroacetyl-1,2,3,10-tetrademethyldeactylcolchicine]
EC50 ([4]; Table 2, read-out: BHK-Ve-EC50): 37 µM | EC50 ([4]; read-out: EC50, BHK-Ve cells): 37 µM | HOS--LD50 (HOS cells): 14 µM | Induction of protein-linked DNA breaks in HOS cells [1]: can induce protein-linked DNA cleavage to a lesser extent | Induction of protein-linked DNA breaks [1, 10]: induces DNA breaks in a dose-dependent manner; also recorded: induce protein-linked DNA breaks in a dose-dependent fashion | Reversal of protein-linked DNA breaks after drug removal [1]: within an hour all the protein-linked DNA breaks have been reversed | Protein-linked DNA breaks reversed within half an hour of drug removal ([1]; within half an hour after removal): approximately 90% | EC50 ([5]; Table 1, read-out: HOS--EC50): 28 µM | EC50 [5, 11]: 28 µM | Induction of protein-linked DNA breaks in HOS colR cells (HOS colR cells): Neither protein-linked DNA cleavage by either TFC or TMBC appear to be affected by the expression of g170 glycoprotein | Topoisomerase II activity on decreasing drug concentration (P4 DNA unknotting) ([2]; 50 to 6.25 micromolar, FIG. 8 lanes 7-10): more striking increase of enzyme activity as the concentration of TFC is decreased | Potency relative to VP-16 (topoisomerase II inhibition) [2]: about 2 fold | BHK-B growth inhibition compared with BHK, in words [6]: inhibited by approximately similar concentrations | Export by the drug efflux pump [6]: are not | EC50 ([6]; BHK-B cells, Table 2): 82 µM | EC50 [7, 12]: 26 µM | EC50 ([7]; read-out: EC50, HOS colR cells): 26 µM | EC50 for HOS colR cells compared with HOS cells [7]: remained virtually unchanged

O=C(N[C@H]1CCc2cc(O)c(O)c(O)c2-c2ccc(O)c(=O)cc21)c1cc(O)c(O)c(O)c1 [TMBC, N-(3',4',5'-trihydroxybenzoyl)-1,2,3,10-tetrademethyldeacetylcolchicine]
EC50 ([4]; Table 2, read-out: BHK-Ve-EC50): 24 µM | EC50 ([4]; read-out: EC50, BHK-Ve cells): 24 µM | HOS--LD50 (HOS cells): 18 µM | Induction of protein-linked DNA breaks in HOS cells [1]: can induce protein-linked DNA cleavage to a lesser extent | Induction of protein-linked DNA breaks [1, 10]: almost as effective as TFC for protein-linked DNA break induction; also recorded: induce protein-linked DNA breaks in a dose-dependent fashion | Reversal of protein-linked DNA breaks after drug removal [1]: more slowly reversed than for TFC, so that after an hour's time after reversal some protein-linked DNA breaks still remain | EC50 ([5]; Table 1, read-out: HOS--EC50): 21 µM | EC50 [5, 11]: 21 µM | Induction of protein-linked DNA breaks in HOS colR cells (HOS colR cells): Neither protein-linked DNA cleavage by either TFC or TMBC appear to be affected by the expression of g170 glycoprotein | EC50 ([8]; Table 1, read-out: BHK--EC50): 28 µM | EC50 ([8]; read-out: EC50, BHK growth inhibition): 28 µM | Potency relative to VP-16 (topoisomerase II inhibition) [2]: ~17 fold | BHK-B growth inhibition compared with BHK, in words [6]: inhibited by approximately similar concentrations | Export by the drug efflux pump [6]: are not | EC50 ([6]; BHK-B cells, Table 2): 13 µM | EC50 [7, 12]: 28 µM | EC50 ([7]; read-out: EC50, HOS colR cells): 28 µM | EC50 for HOS colR cells compared with HOS cells [7]: remained virtually unchanged

COc1cc([C@@H]2c3cc4c(cc3[C@@H](O[C@@H]3O[C@@H]5CO[C@@H](C)O[C@H]5[C@H](O)[C@H]3O)[C@H]3COC(=O)[C@H]23)OCO4)cc(OC)c1O [VP-16, etoposide, reference compound]
Induction of protein-linked DNA breaks in HOS cells [1]: very effective to cause protein-linked DNA breaks | Topoisomerase II inhibition, known [9]: known to inhibit topoisomerase II activity | Induction of protein-linked DNA breaks in HOS colR cells (HOS colR cells): limited effect in causing protein-linked DNA breaks | Topoisomerase II activity on decreasing drug concentration (P4 DNA unknotting) ([2]; 100 to 12.5 micromolar, FIG. 8 lanes 3-6): increase of topoisomerase II activity as the concentration of VP-16 is decreased

CC[C@]1(O)C[C@H]2CN(CCc3c([nH]c4ccccc34)[C@@](C(=O)OC)(c3cc4c(cc3OC)N(C=O)[C@H]3[C@@](O)(C(=O)OC)[C@H](OC(C)=O)[C@]5(CC)C=CCN6CC[C@]43[C@@H]65)C2)C1 [Vincristine, reference compound]
BHK-Ve-EC50 / concentration necessary to inhibit BHK-Ve cell growth ([4]; Table 2): 2.7 µg/mL | BHK--EC50 ([8]; Table 1): 0.006 µg/mL | BHK-B-EC50 ([6]; BHK-B cells, Table 2): 0.34 µg/mL | Concentration necessary to inhibit BHK-B growth relative to BHK ([6]; hamster, bhk-b vs bhk cells): approximately 50 fold | Export by the drug efflux pump [6]: exported by the drug efflux pump
